Data from patent publication US10112922B2, “Inhibitor of bruton's tyrosine kinase” (Centaurus BioPharma Co., Ltd., priority 2014, dated 2018).
Entries after “also recorded” stand apart in the source; their conditions may differ. Read-outs that look alike come from different tables or passages of the source.

Legend:
Btk kinase = Btk kinase (Homo sapiens (Human), UniProt Q06187); assay: Btk kinase enzymatic activity assay (HTRF); assay type: biochemical
Protocol: The half inhibition concentrations (IC50 values) of the compounds disclosed herein on Btk were determined at both enzymatic level and cellular level: the ability of the compounds to inhibit the activity of Btk kinase was determined in an enzymtic activity assay, and the inhibitory effect of the compounds on BCR-induced calcium flux in cells was determined in a cellular function assay.
(§1) The compounds were gradiently diluted 3 folds starting from 1 mM with 100% DMSO (totally 11 concentrations). 4 μL of each sample with a different concentration was added into 96 μL of reaction buffer (50 mM HEPES, pH 7.4, 10 mM MgCl2, 1 mM EGTA, 0.01% Tween-20, 0.005% BAS, 2 mM DTT). […] The mixture was centrifuged to mix well, followed by adding 2.5 μL of a mixture of ATP (final concentration designated as Km) and TK petide (HTRF® KinEASE™-TK, Cisbio) to initiate the reaction (total reaction volume being 10 μL). […] The enzyme activity for each compound was determined at 11 concentrations, and IC50 values were obtained by GraFit Software 6.0 (Erithacus Software).

ITK kinase = ITK kinase (Homo sapiens (Human), UniProt Q08881); assay: ITK kinase enzymatic assay (same HTRF method as BTK); assay type: biochemical
ITK kinase, sequence (Q08881 whole entry): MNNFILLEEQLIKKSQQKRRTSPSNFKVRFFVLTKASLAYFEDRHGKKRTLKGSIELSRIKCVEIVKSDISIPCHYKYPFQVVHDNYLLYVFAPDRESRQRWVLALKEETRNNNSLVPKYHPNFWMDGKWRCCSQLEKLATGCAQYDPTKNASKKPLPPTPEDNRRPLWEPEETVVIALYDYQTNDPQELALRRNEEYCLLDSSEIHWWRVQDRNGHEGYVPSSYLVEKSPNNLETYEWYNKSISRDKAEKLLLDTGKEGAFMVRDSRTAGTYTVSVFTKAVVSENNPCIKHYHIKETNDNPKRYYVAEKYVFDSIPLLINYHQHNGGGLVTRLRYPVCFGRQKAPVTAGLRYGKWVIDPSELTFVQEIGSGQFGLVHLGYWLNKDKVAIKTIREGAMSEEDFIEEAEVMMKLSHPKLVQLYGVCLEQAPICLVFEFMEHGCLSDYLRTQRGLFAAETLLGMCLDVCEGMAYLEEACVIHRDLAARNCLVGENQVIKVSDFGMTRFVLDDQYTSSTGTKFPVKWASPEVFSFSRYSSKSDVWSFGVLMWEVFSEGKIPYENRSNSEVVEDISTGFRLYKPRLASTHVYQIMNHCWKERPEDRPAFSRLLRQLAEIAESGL
Protocol: as §1
In vitro activity in inhibiting ITK kinase was determined similar to that in respect of BTK kinase.

OCI-LY-10 cells = assay: Efficacy in subcutaneously xenografted tumor model in mice; assay type: in vivo, CB-17 SCID mice; settings: 100 mg/kg PO QD
Protocol: SPF grade female CB-17 SCID mice (4-5 week) were used. 0.1 ml of OCI-LY-10 cells suspended in serum-free medium (containing 5×10^6 cells, 30% Matrigel) were injected subcutaneously in both the left and the right flanks of mice. Mice were grouped and numbered when the average tumor volumes were more than 100 mm3, and the body weights and tumor volumes were determined. The mice were randomly grouped according to tumor volumes, and appropriate adjustments were made so that the average body weight in each group is on the same level. Animals were dosed orally on the same day when they were grouped, and body weights and tumor volumes were measured twice a week. Relative tumor growth (T/C) and Tumor growth inhibition (TGI) were the major test indeces.
The equation for calculating the tumor volume is V=0.5×a×b^2, wherein v is the tumor volume, a and b are the length and the width of the tumor, respectively. The relative tumor volume (RTV) was calculated according to the tumor volume with the equation RTV=Vt/V0, wherein V0 was the tumor volume at the time when the animals were grouped, and Vt was the tumor volume at indicated time points. The equation for calculating the relative tumor proliferation rate was T/C (%)=TRTV/CRTV*100%. (TRTV was the RTV of treated group, and CRTV was the RTV of control group).
The equation for calculating the tumor growth inhibition rate was TGI (%)=(1−(tumor volume of the treated group−tumor volume of the treated group at the time when the animals were grouped)/(tumor volume of the control group−tumor volume of the control group at the time when the animals were grouped))*100%.

[1] = Toxicity test in mice (7-day oral administration); assay type: in vivo, CD-1 (ICR) mice; settings: for Average body weight of mice / Changes (%) in mice body weight in treated group over control group: 1000 mg/kg oral once a day
From the text: Body weights and conditions of mice were monitored every day, during which all mice were not fasting.

[2] = system: type II collagen-induced arthritis; assay: Type II collagen-induced arthritis mice model; assay type: in vivo, DBA/1 mice
Protocol: The mice were randomly grouped according to their arthritis scores when the onset of arthritis was observed after 4 weeks. Compounds were then administered continuously for 4 weeks, during which the arthritis scores were evaluated for each mouse and the body weights thereof were measure every other day. The criteria for evaluating the arthritis score were as follows:
1=erythema and mild swelling at ankle joint;
2=erythema and mild swelling from ankle joint to phalangeal joint or metacarpal joint;
3=erythema and moderate swelling from ankle joint to phalangeal joint or metacarpal joint;
4=erythema and severe swelling or ankylosis on whole foot including from ankle joint to phalangeal joint.
Each paw was scored according to the above criteria, and the highest score was 16.

[3] = 1000 mg/kg oral once a day for 7 days

Btk kinase, sequence (Q06187 whole entry): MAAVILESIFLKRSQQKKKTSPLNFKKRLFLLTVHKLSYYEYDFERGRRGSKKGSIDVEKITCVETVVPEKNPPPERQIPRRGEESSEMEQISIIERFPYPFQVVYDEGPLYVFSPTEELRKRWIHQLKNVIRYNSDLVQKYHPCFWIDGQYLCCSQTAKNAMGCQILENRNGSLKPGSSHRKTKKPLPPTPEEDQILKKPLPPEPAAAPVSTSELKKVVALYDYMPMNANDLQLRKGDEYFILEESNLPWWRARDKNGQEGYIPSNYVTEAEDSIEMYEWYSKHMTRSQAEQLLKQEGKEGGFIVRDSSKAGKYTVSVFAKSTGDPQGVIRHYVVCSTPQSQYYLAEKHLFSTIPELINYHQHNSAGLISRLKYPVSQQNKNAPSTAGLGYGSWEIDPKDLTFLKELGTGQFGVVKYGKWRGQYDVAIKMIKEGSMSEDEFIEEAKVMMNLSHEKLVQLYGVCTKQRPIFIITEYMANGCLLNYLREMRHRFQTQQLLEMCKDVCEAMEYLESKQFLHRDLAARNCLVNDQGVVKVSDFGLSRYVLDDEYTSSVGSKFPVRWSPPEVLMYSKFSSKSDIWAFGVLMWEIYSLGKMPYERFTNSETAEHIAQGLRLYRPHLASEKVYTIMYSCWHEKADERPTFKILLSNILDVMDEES

COC/C=C/C(=O)N1CC[C@@H](n2nc(-c3ccc(Oc4ccccc4)cc3)c(C(N)=O)c2N)C1 [Example 9, (R,E)-5-amino-1-(1-(4-methoxybut-2-enoyl)pyrrolidin-3-yl)-3-(4-phenoxyphenyl)-1H-pyrazole-4-carboxamide]
IC50 (Btk kinase; Table 1, read-out: Btk IC50): < 100 nM
IC50 (Btk kinase; Table 5, kinase selectivity test, read-out: IC50 (nM) BTK): 1.9 nM
selectivity on BTK vs ITK (Btk kinase; calculated from IC50 values): more than 1000 folds
IC50 (ITK kinase; Table 1, read-out: Itk IC50): > 1000 nM
IC50 (ITK kinase; Table 5, kinase selectivity test, read-out: IC50 (nM) ITK): > 1000 nM
TGI (%) Day 3 (OCI-LY-10 cells; Day 3): 45.79%
TGI (%) Day 8 (OCI-LY-10 cells; Day 8): 39.37%
TGI (%) Day 11 (OCI-LY-10 cells; Day 11): 43.05%
difference in body weight change from control group [1, 3]: < 2%
toxicity [1, 3]: no toxicity
Average body weight of mice ([1]; Day 1): 24.4 g
Changes (%) in mice body weight in treated group over control group ([1]; Day 1): 100.0%
Average body weight of mice ([1]; Day 2): 24.6 g
Changes (%) in mice body weight in treated group over control group ([1]; Day 2): 100.0%
Average body weight of mice ([1]; Day 3): 25.1 g
Changes (%) in mice body weight in treated group over control group ([1]; Day 3): 100.3%
Average body weight of mice ([1]; Day 4): 25.6 g
Changes (%) in mice body weight in treated group over control group ([1]; Day 4): 101.1%
Average body weight of mice ([1]; Day 5): 26.4 g
Changes (%) in mice body weight in treated group over control group ([1]; Day 5): 101.8%
Average body weight of mice ([1]; Day 6): 26.9 g
Changes (%) in mice body weight in treated group over control group ([1]; Day 6): 101.7%
Average body weight of mice ([1]; Day 7): 27.2 g
Changes (%) in mice body weight in treated group over control group ([1]; Day 7): 101.7%
therapeutic effect on arthritis at very low dosage ([2]; 0.3 mg/kg): good therapeutic effect; also recorded: comparable to that of 3 mg/kg of PCI-32765
arthritis (arthritis score) after administration ([2]; administered continuously for 4 weeks, FIG. 1): significantly alleviated
